Laboratory results as given in patent US20140120180A1, “METAL COMPOUNDS MIXED OR SULPHATED, AS PHOSPHATE BINDERS” (CYTOCHROMA DEVELOPMENT INC., priority 1997, published 2014).
Several values for one entry are separate records, joined by “and”; a condition that tells them apart may be missing. Equal entries are not always repeated.

Legend:
[1] = Urine and faecal phosphate excretion in rats fed binder in diet; details: rat, in vivo
[2] = Phosphate binding capacity, 3.2 mmol compound in 25 ml 20 mmol l^-1 phosphate buffer (Example 1)
Experimental: In Table 1, the values indicate respective percentage phosphate binding capacity at each of pH3, pH7 and pH8, n indicating the number of trials made for each compound.
The phosphate binding capacity was measured by mixing 3.2 mmol of the compound with 25 ml of 20 mmol l^−1 phosphate buffer for 30 min at 25° C. For all compounds except CT2000, which compounds were dry powders, the compounds were merely weighed and dosed. For CT2000, the slurry was dosed in an amount such as to give an equivalent of 1 g of a powder dried to constant weight at 40° C. Sodium phosphate and sodium hydrogen phosphate were mixed to provide respective phosphate solutions at pH3, 7 and 8 (HCl being added to provide pH3). […] The results are shown in Table 1, in which n refers to the number of observations and the values as the % of phosphate precipitated out of solution, calculated as follows:
where • x=mmol phosphate in solution after precipitation; and • y=mmol phosphate in solution without precipitation.

[3] = Measurement of phosphate binding M4: 1 g in 25 ml 40 mmol l^-1 phosphate buffer, pH 3-8 (Examples 3 and 4)
[4] = rat, in vivo
[5] = Body weight and faecal hydration of rats fed binder in diet; details: rat, in vivo
Experimental: Total faecal samples from each animal were mixed to ensure a homogeneity and duplicate one gram aliquots weighed. The percentage hydration of the stool was calculated following freeze drying to constant weight.
Following feeding with the modified diets for 7 days, animals were transferred to metabowls for collection of total 24 hour faecal and urine excretion.

[6] = Phosphate binding in food, Method 3 (food slurry in 0.01 M HCl)
[7] = Phosphate binding capacity Method 2: as Method 1 but 20 mmol l^-1 phosphate buffer, increasing weight of compound
[8] = 3.2 mmol compound, 25 ml 20 mmol l^-1 phosphate buffer, 30 min, 25° C.

Row | Compound | Total faecal phosphate [1] | Urine phosphate [1] | percentage phosphate binding capacity, pH 3 [2] | percentage phosphate binding capacity, pH 7 [2] | percentage phosphate binding capacity, pH 8 [2] | increase in phosphate binding at pH 3 compared to pH 8 [3] | Percentage phosphate binding at pH 3 ([3]; pH 3) | Percentage phosphate binding at pH 5 ([3]; pH 5) | Percentage phosphate binding at pH 7 ([3]; pH 7) | Percentage phosphate binding at pH 8 ([3]; pH 8) | Serum aluminium [4] | Serum calcium [4] | Serum iron [4] | Urine aluminium [4] | mean weight gain [5] | faecal hydration compared to the controls [5] | further results
1 | O=C([O-])[O-].[Ca+2] [CaCO3, calcium carbonate] | 213 ± 16 μmol g^−1 dry weight faeces | 857 ± 25 µmol | 15.3 ± 0.5% | 9.7 ± 1.8% | 2.4 ± 1.8% | 5.9 fold | 69% and 72% | 63% and 70% | 30% and 43% | 8% and 16% | 0.33 ± 0.05 µmol/L | 2.93 ± 0.09 (n = 4)β mmol l^−1 | 41.9 ± 10.8 (n = 4) mmol l^−1 | 0.50 ± 0.21 µg | 38-53 grams |  | 
2 | O.O.O=S(=O)([O-])[O-].[Ca+2] [CaSO4•2H2O, Calcium Sulphate Dihydrate] |  |  |  |  |  |  |  |  |  |  |  |  |  |  |  |  | Percentage phosphate bound at pH 3 ([3]; pH 3): 0%; Percentage phosphate bound at pH 5 ([3]; pH 5): 0%; Percentage phosphate bound at pH 7 ([3]; pH 7): 57%; Percentage phosphate bound at pH 8 ([3]; pH 8): 89%
3 | [Ce+3].[OH-].[OH-].[OH-] [Ce(OH)3] |  |  |  |  |  |  |  |  |  |  |  |  |  |  |  |  | percentage phosphate binding capacity, pH 3 [2, 8]: 69.8 ± 7.5%; percentage phosphate binding capacity, pH 7 [2, 8]: 57.8 ± 8.9%; percentage phosphate binding capacity, pH 8 [2, 8]: 60.5 ± 1.5%
4 | [Mg+2].[OH-].[OH-] [Mg(OH)2, magnesium hydroxide] | 183 ± 17 μmol g^−1 dry weight faeces | 65 ± 53 µmol | 61.1 ± 7.5% | 45.7 ± 5.9% | 12.5 ± 3.7% | 3.7 fold | 81% and 87% | 82% and 80% | 54% and 58% | 17% and 28% | 0.35 ± 0.08 µmol/L | 2.58 ± 0.05 (n = 3) mmol l^−1 | 29.4 ± 7.9 (n = 3) mmol l^−1 | 0.17 ± 0.07 µg | 38-53 grams | none of the animal groups treated with Mg(OH)2, CT 100 or CTFeMg showed an increase in faecal hydration compared to the controls | phosphate binding in food, comparison [6]: not the best when used in food; urinary magnesium excretion, comparison between groups [4]: significantly higher than the control group or animals treated with any other binder; phosphate binding at pH 3, comparison [7]: best phosphate binder
5 | Al2Mg6(OH)16CO3.4H2O [CT100] |  |  |  |  |  |  |  |  |  |  |  |  |  |  | 38-53 grams | none of the animal groups treated with Mg(OH)2, CT 100 or CTFeMg showed an increase in faecal hydration compared to the controls | 
